# Laboratory results reported in patent publication US8168651B2, “Protein kinase modulators” (Cylene Pharmaceuticals, Inc., priority 2008, dated 2012).
# What was measured:
# Experiment in all cases: Standardized radiometric kinase assays, percentage of activity at 0.5 μM;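 note: Read-out is ³³P-labelled substrate protein phosphorylated by each kinase, captured on filters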
# [1] = biological target: each individual kinase of the panel (Homo sapiens, UniProt O14757)
# [2] = biological target: each individual kinase of the panel (Homo sapiens, UniProt O15530)
# [3] = biological target: each individual kinase of the panel (Homo sapiens, UniProt O43293)
# [4] = biological target: each individual kinase of the panel (Homo sapiens, UniProt P00533, L858R)
# [5] = biological target: each individual kinase of the panel (Homo sapiens, UniProt P00533, L858R/T790M)
# [6] = biological target: each individual kinase of the panel (Homo sapiens, UniProt P04049)
# [7] = biological target: each individual kinase of the panel (Homo sapiens, UniProt P06213)
# [8] = biological target: each individual kinase of the panel (Homo sapiens, UniProt P07333)
# [9] = biological target: each individual kinase of the panel (Homo sapiens, UniProt P08581)
# [10] = biological target: each individual kinase of the panel (Homo sapiens, UniProt P10721, V560G)
# [11] = biological target: each individual kinase of the panel (Homo sapiens, UniProt P17612)
# [12] = biological target: each individual kinase of the panel (Homo sapiens, UniProt P35968)
# [13] = biological target: each individual kinase of the panel (Homo sapiens, UniProt P43403)
# [14] = biological target: each individual kinase of the panel (Homo sapiens, UniProt P50613)
# [15] = biological target: each individual kinase of the panel (Homo sapiens, UniProt P51812)
# [16] = biological target: each individual kinase of the panel (Homo sapiens, UniProt P78368)
# [17] = biological target: each individual kinase of the panel (Homo sapiens, UniProt Q00534)
# [18] = biological target: each individual kinase of the panel (Homo sapiens, UniProt Q02750)
# [19] = biological target: each individual kinase of the panel (Homo sapiens, UniProt Q06418)
# [20] = biological target: each individual kinase of the panel (Homo sapiens, UniProt Q13043)
# [21] = biological target: each individual kinase of the panel (Homo sapiens, UniProt Q14012)
# [22] = biological target: each individual kinase of the panel (Homo sapiens, UniProt Q15418)
# [23] = biological target: each individual kinase of the panel (Homo sapiens, UniProt Q86V86)
# [24] = biological target: each individual kinase of the panel (Homo sapiens, UniProt Q92630)
# [25] = biological target: each individual kinase of the panel (Homo sapiens, UniProt Q9H4B4)
# [26] = biological target: each individual kinase of the panel (Homo sapiens, UniProt Q9HBH9)
# [27] = biological target: each individual kinase of the panel (Homo sapiens, UniProt Q9P1W9)
# [28] = biological target: each individual kinase of the panel (Homo sapiens, UniProt Q9UM73)
# [29] = biological target: each individual kinase of the panel (Homo sapiens, UniProt Q9Y6M4)
# Chain of each individual kinase of the panel (Homo sapiens, UniProt P08581) (P08581 25-1390 limits assumed): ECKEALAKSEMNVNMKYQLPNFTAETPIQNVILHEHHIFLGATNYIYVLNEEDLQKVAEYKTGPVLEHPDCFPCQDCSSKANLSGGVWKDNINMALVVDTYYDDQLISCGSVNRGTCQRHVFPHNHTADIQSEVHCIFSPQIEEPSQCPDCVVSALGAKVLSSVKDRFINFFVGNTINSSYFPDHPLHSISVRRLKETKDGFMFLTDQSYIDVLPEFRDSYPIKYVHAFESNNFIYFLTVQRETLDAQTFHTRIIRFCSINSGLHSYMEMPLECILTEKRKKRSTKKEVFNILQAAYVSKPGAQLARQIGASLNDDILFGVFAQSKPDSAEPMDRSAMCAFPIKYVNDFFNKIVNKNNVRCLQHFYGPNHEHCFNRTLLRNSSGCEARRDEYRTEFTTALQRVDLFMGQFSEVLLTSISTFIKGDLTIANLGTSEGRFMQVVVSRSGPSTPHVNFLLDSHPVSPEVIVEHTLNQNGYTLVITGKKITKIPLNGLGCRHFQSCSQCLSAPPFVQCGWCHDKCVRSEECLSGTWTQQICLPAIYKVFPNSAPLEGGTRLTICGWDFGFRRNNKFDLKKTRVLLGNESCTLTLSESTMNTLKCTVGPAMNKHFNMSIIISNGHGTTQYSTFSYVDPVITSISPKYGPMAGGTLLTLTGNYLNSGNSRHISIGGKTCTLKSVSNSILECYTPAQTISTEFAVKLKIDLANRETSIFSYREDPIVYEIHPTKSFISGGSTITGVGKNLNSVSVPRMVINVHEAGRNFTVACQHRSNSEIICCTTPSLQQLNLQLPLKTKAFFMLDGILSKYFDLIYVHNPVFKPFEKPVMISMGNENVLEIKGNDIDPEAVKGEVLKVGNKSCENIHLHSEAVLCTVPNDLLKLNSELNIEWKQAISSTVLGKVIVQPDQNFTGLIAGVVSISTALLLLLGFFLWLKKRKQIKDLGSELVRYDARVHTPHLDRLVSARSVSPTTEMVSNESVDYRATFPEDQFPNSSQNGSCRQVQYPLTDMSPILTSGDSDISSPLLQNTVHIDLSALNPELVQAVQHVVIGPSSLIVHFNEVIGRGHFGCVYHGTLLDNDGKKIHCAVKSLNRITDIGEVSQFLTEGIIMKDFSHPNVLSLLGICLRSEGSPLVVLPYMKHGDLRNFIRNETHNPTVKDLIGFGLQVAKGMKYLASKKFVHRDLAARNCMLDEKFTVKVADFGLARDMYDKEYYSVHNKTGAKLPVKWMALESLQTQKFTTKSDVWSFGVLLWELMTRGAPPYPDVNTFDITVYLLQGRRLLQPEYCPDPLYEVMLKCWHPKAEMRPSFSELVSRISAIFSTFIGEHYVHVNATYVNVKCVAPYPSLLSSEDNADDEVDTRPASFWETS
# Chain of each individual kinase of the panel (Homo sapiens, UniProt P35968) (P35968 20-1356 limits assumed): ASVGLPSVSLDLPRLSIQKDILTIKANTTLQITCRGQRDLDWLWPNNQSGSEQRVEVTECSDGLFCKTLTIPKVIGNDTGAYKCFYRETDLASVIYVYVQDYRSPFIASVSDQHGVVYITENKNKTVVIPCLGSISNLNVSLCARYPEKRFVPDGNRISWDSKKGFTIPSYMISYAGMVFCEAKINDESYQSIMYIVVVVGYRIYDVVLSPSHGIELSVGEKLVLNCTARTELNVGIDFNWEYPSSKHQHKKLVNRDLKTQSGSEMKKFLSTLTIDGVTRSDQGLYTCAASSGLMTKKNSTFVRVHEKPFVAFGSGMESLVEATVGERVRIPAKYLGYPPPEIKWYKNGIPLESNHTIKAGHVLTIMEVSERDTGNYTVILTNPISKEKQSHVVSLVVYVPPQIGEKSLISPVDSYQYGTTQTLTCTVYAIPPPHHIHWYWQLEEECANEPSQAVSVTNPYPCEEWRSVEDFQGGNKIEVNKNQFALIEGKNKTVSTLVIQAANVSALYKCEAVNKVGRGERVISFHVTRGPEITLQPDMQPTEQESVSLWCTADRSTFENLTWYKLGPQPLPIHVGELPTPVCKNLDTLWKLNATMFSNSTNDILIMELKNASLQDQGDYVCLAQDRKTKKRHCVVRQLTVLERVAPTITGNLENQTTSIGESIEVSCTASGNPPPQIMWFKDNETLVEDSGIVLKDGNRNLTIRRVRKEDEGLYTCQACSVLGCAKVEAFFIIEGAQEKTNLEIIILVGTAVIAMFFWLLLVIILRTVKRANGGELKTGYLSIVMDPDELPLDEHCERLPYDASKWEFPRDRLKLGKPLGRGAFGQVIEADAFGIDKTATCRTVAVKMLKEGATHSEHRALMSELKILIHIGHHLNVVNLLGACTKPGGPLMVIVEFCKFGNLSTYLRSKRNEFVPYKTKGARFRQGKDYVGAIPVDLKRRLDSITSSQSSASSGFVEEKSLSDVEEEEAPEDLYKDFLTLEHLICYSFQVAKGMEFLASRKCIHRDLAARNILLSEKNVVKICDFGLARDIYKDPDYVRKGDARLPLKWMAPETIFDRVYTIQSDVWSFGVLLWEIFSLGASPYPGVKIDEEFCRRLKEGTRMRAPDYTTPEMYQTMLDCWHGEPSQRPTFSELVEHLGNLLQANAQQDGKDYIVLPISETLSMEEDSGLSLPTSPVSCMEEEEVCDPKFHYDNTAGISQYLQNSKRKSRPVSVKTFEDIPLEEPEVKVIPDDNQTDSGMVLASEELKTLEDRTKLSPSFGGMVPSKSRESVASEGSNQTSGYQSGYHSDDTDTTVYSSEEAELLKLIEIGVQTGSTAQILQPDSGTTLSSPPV
# Chain of each individual kinase of the panel (Homo sapiens, UniProt P06213) (P06213 28-758 limits assumed): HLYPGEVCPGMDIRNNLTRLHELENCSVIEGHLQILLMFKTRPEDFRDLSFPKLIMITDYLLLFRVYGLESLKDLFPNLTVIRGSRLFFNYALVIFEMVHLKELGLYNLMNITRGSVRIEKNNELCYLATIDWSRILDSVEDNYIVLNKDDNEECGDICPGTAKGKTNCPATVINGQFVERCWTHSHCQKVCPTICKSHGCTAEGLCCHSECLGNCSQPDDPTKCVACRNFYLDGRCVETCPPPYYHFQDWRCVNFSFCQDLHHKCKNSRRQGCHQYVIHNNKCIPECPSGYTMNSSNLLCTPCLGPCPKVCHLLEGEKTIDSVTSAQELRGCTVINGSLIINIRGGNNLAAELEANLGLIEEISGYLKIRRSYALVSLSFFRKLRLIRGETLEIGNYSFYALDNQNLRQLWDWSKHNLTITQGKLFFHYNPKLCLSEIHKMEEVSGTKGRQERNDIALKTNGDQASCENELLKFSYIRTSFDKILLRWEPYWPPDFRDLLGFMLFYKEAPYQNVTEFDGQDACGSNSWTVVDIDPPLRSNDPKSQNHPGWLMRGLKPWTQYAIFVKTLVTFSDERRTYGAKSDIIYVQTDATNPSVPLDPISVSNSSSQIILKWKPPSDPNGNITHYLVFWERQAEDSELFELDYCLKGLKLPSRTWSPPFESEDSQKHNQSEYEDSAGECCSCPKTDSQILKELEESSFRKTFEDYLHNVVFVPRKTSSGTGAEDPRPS
# Chain of each individual kinase of the panel (Homo sapiens, UniProt P06213) (P06213 763-1382 limits assumed): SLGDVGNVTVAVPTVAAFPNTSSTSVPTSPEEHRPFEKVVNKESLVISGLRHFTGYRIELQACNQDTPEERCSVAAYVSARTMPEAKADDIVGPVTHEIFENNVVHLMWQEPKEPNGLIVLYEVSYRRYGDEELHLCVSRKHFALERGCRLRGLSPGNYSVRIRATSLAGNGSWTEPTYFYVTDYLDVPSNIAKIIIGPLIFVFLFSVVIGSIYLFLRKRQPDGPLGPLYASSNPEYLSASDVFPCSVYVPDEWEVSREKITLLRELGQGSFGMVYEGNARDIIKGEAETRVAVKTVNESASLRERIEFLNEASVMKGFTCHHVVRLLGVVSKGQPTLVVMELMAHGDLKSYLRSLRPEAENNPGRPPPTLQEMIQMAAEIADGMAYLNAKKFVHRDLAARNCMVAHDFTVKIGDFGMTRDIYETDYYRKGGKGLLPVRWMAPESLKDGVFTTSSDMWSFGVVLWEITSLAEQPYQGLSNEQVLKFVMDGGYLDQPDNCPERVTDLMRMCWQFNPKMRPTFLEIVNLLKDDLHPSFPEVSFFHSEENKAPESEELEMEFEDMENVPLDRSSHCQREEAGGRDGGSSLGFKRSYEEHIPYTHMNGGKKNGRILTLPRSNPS
# Chain of each individual kinase of the panel (Homo sapiens, UniProt P10721, V560G) (P10721 26-976 V560G limits assumed): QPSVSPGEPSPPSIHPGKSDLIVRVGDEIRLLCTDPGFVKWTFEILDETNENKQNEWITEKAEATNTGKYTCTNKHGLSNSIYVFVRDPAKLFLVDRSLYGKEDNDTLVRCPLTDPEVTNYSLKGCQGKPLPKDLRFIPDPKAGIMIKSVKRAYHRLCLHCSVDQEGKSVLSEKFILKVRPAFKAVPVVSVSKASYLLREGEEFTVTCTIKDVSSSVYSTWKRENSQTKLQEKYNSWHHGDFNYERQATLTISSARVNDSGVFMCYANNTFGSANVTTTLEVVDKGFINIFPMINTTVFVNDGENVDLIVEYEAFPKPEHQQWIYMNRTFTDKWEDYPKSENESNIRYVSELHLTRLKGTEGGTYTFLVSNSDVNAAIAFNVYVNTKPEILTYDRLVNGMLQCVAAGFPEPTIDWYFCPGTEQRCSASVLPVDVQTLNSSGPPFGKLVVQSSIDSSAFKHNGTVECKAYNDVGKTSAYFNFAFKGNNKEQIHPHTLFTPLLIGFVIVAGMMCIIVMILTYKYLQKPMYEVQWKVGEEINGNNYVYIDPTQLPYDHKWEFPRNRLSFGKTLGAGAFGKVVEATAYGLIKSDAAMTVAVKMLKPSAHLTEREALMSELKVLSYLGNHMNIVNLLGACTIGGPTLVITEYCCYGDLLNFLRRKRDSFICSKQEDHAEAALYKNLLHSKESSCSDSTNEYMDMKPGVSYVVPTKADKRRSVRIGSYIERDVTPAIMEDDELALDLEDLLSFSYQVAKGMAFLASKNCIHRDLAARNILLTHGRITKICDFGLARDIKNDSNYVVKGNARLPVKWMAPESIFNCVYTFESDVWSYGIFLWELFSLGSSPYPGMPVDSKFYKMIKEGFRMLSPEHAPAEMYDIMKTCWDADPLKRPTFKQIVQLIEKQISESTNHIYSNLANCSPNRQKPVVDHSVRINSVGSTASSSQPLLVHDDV
structure (smiles),measurement,setting,value
C#Cc1cccc(Nc2nc3cc(C(=O)O)ccc3c3cnccc23)c1 [drawing 1137],CHK1 percentage of activity,[1],13%
same,PDK1 percentage of activity,[2],8%
same,DAPK3 percentage of activity,[3],87%
same,EGFR(L858R) percentage of activity,[4],24%
same,"EGFR(T790M, L858R) percentage of activity",[5],26%
same,RAF1 percentage of activity,[6],62%
same,INSR percentage of activity,[7],−7%
same,CSF1R percentage of activity,[8],−12%
same,MET percentage of activity,[9],−16%
same,cKit(V560G) percentage of activity,[10],69%
same,PKA percentage of activity,[11],−9%
same,VEGFR2 percentage of activity,[12],55%
same,ZAP70 percentage of activity,[13],2%
same,CDK7/cyclinH/MAT1 percentage of activity,[14],36%
same,RPS6KA3 percentage of activity,[15],53%
same,CK1 gamma 2 percentage of activity,[16],35%
same,CDK6/cyclinD3 percentage of activity,[17],12%
same,MEK1 percentage of activity,[18],4%
same,TYRO3 percentage of activity,[19],22%
same,MST1 percentage of activity,[20],−3%
same,CAMK1 percentage of activity,[21],1%
same,RPS6KA1 percentage of activity,[22],54%
same,PIM3 percentage of activity,[23],−2%
same,DYRK2 percentage of activity,[24],55%
same,PLK3 percentage of activity,[25],−1%
same,Mnk2 percentage of activity,[26],−2%
same,PIM2 percentage of activity,[27],6%
same,ALK percentage of activity,[28],−20%
same,CK1 gamma 3 percentage of activity,[29],32%
